Measurements: patent US20040223946A1, “Adhesive treatment for insect and related bites” (Closure Medical Corporation, priority 2003, published 2004)

Assay: Observation of the monomer composition about one minute and at least twenty-four hours after preparation
Assay type: physicochemical
Conditions: 1 wt % in 2 mL 2-octyl cyanoacrylate monomer
Procedure: A 2-octyl cyanoacrylate monomer composition is prepared by adding 1 wt % menthol to 2 mL of 2-octyl cyanoacrylate monomer. The mixture is stirred.
The characteristics of the composition are observed at about one minute after preparation and later at least twenty-four hours after preparation.

solubility of the additive in 2-octyl cyanoacrylate monomer: soluble in the monomer
Structure (SMILES): CC1CCC(C(C)C)C(O)C1 (stereo not shown) [menthol]
